# Data from US20250011330A1, “Imidazo[1,2- a]pyrazine and Imidazo[1,2- a]pyridine Based Tyrosyl-DNA Phosphodiesterase I (TDP1) Inhibitors” (The USA, As Represented by the Secretary, Department of …, priority 2021, published 2025).
# Read-outs that look alike come from different tables or passages of the source.
# Key:
# [1] = target: whole cell extract (WCE) human TDP1 (Homo sapiens (Human), UniProt Q9NUW8); test: gel based whole cell extract (WCE) human TDP1 fluorescence assay; type: biochemical; details: read-out: WCE hTDP1 IC50
# Chain of whole cell extract (WCE) human TDP1 (Q9NUW8 whole entry): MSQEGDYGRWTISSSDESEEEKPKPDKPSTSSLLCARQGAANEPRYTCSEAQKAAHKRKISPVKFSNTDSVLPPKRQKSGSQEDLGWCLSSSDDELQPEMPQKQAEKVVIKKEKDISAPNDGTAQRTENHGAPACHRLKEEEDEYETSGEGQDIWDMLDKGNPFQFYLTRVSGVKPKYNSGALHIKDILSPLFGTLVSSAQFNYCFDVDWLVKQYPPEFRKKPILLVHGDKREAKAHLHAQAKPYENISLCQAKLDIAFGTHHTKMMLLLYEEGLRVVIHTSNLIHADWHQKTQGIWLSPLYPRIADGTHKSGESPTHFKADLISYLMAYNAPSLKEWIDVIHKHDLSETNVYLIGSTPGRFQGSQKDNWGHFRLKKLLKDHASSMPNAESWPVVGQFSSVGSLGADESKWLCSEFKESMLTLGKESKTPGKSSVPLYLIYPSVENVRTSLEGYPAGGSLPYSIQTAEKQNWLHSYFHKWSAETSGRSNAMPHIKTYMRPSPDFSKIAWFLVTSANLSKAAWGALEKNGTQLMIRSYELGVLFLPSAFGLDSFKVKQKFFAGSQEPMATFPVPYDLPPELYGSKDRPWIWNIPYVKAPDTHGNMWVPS
# [2] = test system: human colon cancer cell line HCT116; test: Synergistic effect with camptothecin (CPT) based on cell viability
# Outline: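 HCT116 cells grown to 30% confluency were exposed for 72 h at 37 °C to serially diluted CPT (0-100 nM) with or without TDP1 inhibitors. Viable cells were counted from brightfield images; fractional affect and combination index came from CompuSyn, and synergy scores from SynergyFinder.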
# TDP2 = TDP2 (Homo sapiens (Human), UniProt O95551); test: gel-based TDP2 fluorescence assay in vitro; type: biochemical; details: Table 3; read-out: TDP2 IC50
# Chain of TDP2 (O95551 whole entry, species assumed): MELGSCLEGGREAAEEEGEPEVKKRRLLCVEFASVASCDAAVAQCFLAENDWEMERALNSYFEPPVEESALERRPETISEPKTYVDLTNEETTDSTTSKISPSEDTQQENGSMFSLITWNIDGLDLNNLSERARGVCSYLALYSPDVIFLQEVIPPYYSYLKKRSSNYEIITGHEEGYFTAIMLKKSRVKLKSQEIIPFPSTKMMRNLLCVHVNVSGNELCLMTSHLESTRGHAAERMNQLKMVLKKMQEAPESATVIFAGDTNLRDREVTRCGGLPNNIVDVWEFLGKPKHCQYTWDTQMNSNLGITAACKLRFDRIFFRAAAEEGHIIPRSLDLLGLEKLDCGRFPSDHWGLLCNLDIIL
# TDP1 = TDP1 (Homo sapiens (Human), UniProt Q9NUW8); test: TDP1 gel-based in vitro fluorescence assay; type: biochemical
# Chain of TDP1 (Q9NUW8 whole entry): as the sequence (Q9NUW8 whole entry) above
smiles,measurement,setting,value
"O=C(O)c1ccc(Nc2c(-c3ccc(-c4ccccc4)cc3)nc3ccc(C(=O)O)cn23)cc1 [Compound 8n, 2-([1,1′-Biphenyl]-4-yl)-3-((4-carboxyphenyl)amino)imidazo[1,2-a]pyridine-6-carboxylic acid]",IC50,[1],> 100000 nM
same,synergy with camptothecin,[2]; list in description,exhibit synergy with camptothecin
same,Synergy Score,"[2]; with camptothecin (CPT), HCT116, 72 h, SynergyFinder 2.0",11.3
same,IC50,TDP2,> 100000 nM
same,IC50,"TDP1; Table 1, imidazo[1,2-a]pyridin-3-amines, read-out: IC50",1.5 µM
same,IC50,"TDP1; Table 3, gel based TDP1 fluorescence assay, read-out: TDP1 IC50",2.94 ± 0.47 µM
same,IC50,"TDP1; Table 3, values in brackets (footnote vi), read-out: TDP1 IC50 (μM), separated data from previous experiments",1.5 µM
same,TDP1 Selectivity,TDP1; ratio of IC50 values of TDP1/TDP2,>34
